In US20190247361A1, “OXYTOCIN ANTAGONIST DOSING REGIMENS FOR PROMOTING EMBRYO IMPLANTATION AND PREVENTING MISCARRIAGE” (ObsEva S.A., priority 2016, published 2019):

Columns and labels:
cytochrome P450 = experiment: microsomal stability, pooled liver microsomes, cytochrome P450 alone; type: in vitro ADME; details: 45 minute experiment
Method: At five time points over the course of a 45 minute experiment, the compounds were analyzed by liquid chromatography and tandem mass spectrometry (LC-MS/MS). Intrinsic clearance values (CLint) with standard error (SE CLint) and metabolic half-life (t1/2) were calculated and are indicated in Table 9, below.

HEK293EBNA cells = details: suppressing Ca^2+ mobilization in cultured HEK293EBNA cells; cited from earlier work
CYP2C19 = CYP2C19 (Homo sapiens, UniProt P33261); experiment: metabolism by CYP2C19 isoform; type: in vitro ADME; details: for Compound Remaining (% of compound present at t = 0 min): 5 μM
Method: At five time points over the course of a 45 minute experiment, the compounds were analyzed by LC-MS/MS. The percentage of each compound remaining at each time point, along with the metabolic half-lives of each compound in the presence of each cytochrome P450 isoform, are indicated in Tables 10-12, below.

[1] = tested on: spontaneous uterine contractions; details: anesthetized late-term pregnant rats, cited from earlier work
[2] = serum compound (II) level at time of embryo transfer (Phase 2 study); type: in vivo; details: female, human, oral, about 3.5 hours after administration, mean (standard deviation)
Method: From one to two embryos of good quality were transferred to each subject. To reduce uterine contractions at the time of embryo transfer, soft or ultra-soft catheters were used and contact with the uterine fundus was avoided. Any difficulties that occurred during the embryo transfer procedure were recorded, including instances in which uterine sounding or cervical dilation were required, instances in which a harder catheter was required, or instances in which blood was found in any part of the catheter.

Chain of CYP2C19 (P33261 whole entry, canonical isoform): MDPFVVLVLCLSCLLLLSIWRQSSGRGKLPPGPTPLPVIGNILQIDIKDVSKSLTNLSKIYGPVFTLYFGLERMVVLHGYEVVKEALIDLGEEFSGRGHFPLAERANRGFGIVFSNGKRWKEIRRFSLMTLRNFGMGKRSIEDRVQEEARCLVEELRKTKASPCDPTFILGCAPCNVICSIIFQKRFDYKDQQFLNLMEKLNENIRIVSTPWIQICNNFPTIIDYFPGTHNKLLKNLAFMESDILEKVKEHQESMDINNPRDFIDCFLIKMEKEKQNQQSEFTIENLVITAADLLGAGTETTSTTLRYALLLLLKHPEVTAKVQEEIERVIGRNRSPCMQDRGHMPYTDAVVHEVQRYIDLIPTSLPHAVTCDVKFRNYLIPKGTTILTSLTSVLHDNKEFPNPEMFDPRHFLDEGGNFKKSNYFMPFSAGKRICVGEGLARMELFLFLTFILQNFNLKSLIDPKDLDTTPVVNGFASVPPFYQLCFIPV

CO/N=C1/C[C@@H](CO)N(C(=O)c2ccc(-c3ccccc3C)cc2)C1 [Compound (II), (3Z,5S)-5-(hydroxymethyl)-1-[(2′-methyl-1,1′-biphenyl-4-yl)carbonyl]pyrrolidin-3-one O-methyloxime]
microsomal CLint at 3 μM (cytochrome P450; read-out: CLint, Metabolic Stability - CYP): 11.6 µL/min/mg
half-life at 3 μM (cytochrome P450; read-out: t1/2, Metabolic Stability - CYP): 2 h
IC50 (HEK293EBNA cells): 81 nM
Compound Remaining (% of compound present at t = 0 min) (CYP2C19; 0 min): 100%
Compound Remaining (% of compound present at t = 0 min) (CYP2C19; 5 min): 93.7%
Compound Remaining (% of compound present at t = 0 min) (CYP2C19; 15 min): 79.1%
Compound Remaining (% of compound present at t = 0 min) (CYP2C19; 30 min): 67.8%
Compound Remaining (% of compound present at t = 0 min) (CYP2C19; 45 min): 59.9%
half-life at 5 μM (CYP2C19; human): 1.01 h
effect on spontaneous uterine contractions ([1]; 10, 30, and 60 mg/kg): dose-dependent reduction in spontaneous uterine contractions
Inhibition of spontaneous uterine contractions ([1]; from 170 to 180 minutes after oral administration at a dose of 60 mg/kg): about 42%
concentration at 3.5 h ([2]; 100 mg dose): 484 ng/mL
concentration at 3.5 h ([2]; 300 mg dose): 1450 ng/mL
concentration at 3.5 h ([2]; 900 mg dose): 4160 ng/mL
